# Data from ChEMBL document CHEMBL5338799, “Synthesis and evaluation of phenylimidazole FabK inhibitors as new Anti-C. Difficile agents” (Bioorg Med Chem, 2023).
# Tests used:
# [1] = Inhibition of Streptococcus pneumoniae FabK expressed in Escherichia coli BL21 (DE3) using crotonyl-CoA as substrate incubated for 10 mins in presence of NADH by microplate reader assay
# [2] = test system: Clostridioides difficile; assay: Antibacterial activity against Clostridioides difficile R20291 assessed as inhibition of bacterial growth incubated for 24 hrs by broth microdilution method; assay type: functional
# [3] = Inhibition of Clostridioides difficile FabK expressed in Escherichia coli BL21 (DE3) using crotonyl-CoA as substrate incubated for 10 mins in presence of NADH by microplate reader assay
# [4] = test system: HCT-116; assay: cells; assay type: functional, cell-based; settings: Homo sapiens, HCT-116, 48 h
# Description: Cytotoxicity against human HCT-116 cells assessed as reduction in cell viability incubated for 48 hrs by resazurin dye based assay
# [5] = Solubility of compound by turbidimetric assay; assay type: physicochemical
Compound,IC50 [1],MIC [2],IC50 [3],IC50 [4],solubility kinetic [5]
O=C(NCc1nc(-c2ccccc2)c[nH]1)Nc1ncc(Sc2ccccc2)s1,37 nM,,,,
O=C(NCc1ncc(-c2ccccc2)[nH]1)Nc1ncc(Sc2ccccn2)s1,,> 50 µg/mL,> 10000 nM,,
O=C(NCc1ncc(-c2ccc(Br)cc2)[nH]1)Nc1ncc(Sc2ccccn2)s1,,1.56 µg/mL,1230 nM,> 100 µg/mL,80.1 µM
O=C(NCc1nc(-c2ccc(Br)cc2)c[nH]1)Nc1nc2ccc(Cl)cc2s1,,6.25 µg/mL,110 nM,> 100 µg/mL,76.9 µM
O=C(NCc1nc(-c2ccc(Br)cc2)c[nH]1)Nc1ncc(Sc2ccc(Cl)cn2)s1,,3.12 µg/mL,850 nM,,59 µM
O=C(NCc1nc2ccccc2[nH]1)Nc1ncc(Sc2ccccn2)s1,,> 50 µg/mL,> 10000 nM,,
CCOc1ccc2nc(NC(=O)NCc3nc(-c4ccc(Br)cc4)c[nH]3)sc2c1,,12.5 µg/mL,170 nM,,79 µM
O=C(NCc1nc(-c2ccc(Br)cc2)c[nH]1)Nc1ncc(Sc2ccc3ccccc3n2)s1,,> 50 µg/mL,750 nM,,74.7 µM
O=C(NCc1nc(-c2ccc(Br)cc2)c[nH]1)Nc1ncc(Sc2nc3ccccc3s2)s1,,> 50 µg/mL,420 nM,,50 µM
O=C(NCc1nc(-c2ccc(Br)cc2)c[nH]1)Nc1ncc(Sc2ccc(C(F)(F)F)cn2)s1,,3.12 µg/mL,770 nM,> 100 µg/mL,18.3 µM
CS(=O)(=O)c1ccc2nc(NC(=O)NCc3nc(-c4ccc(Br)cc4)c[nH]3)sc2c1,,> 100 µg/mL,450 nM,,44.5 µM
O=C(NCc1nc(-c2ccc(Br)cc2)c[nH]1)Nc1nc2c(F)cc(F)cc2s1,,12.5 µg/mL,4530 nM,,125 µM
O=C(NCc1nc(-c2ccc(Br)cc2)c[nH]1)Nc1ncc(Sc2ncccc2C(F)(F)F)s1,,1.56 µg/mL,240 nM,> 100 µg/mL,52 µM
O=C(NCc1nc2ccccc2c(=O)[nH]1)Nc1ncc(Sc2ccccn2)s1,,> 50 µg/mL,> 10000 nM,,
O=C(NCc1nc(-c2ccc(Br)cc2)c[nH]1)Nc1nc2c(C(F)(F)F)cccc2s1,,1.56 µg/mL,> 10000 nM,> 100 µg/mL,
O=C(NCc1nc(-c2ccc(Br)cc2)c[nH]1)Nc1ncc(Sc2ncccn2)s1,,1.56 µg/mL,1020 nM,> 100 µg/mL,83.9 µM
O=C(NCc1nc(-c2ccc(Br)cc2)c[nH]1)Nc1nc2ccc(Br)cc2s1,,50 µg/mL,340 nM,,31.3 µM
O=C(NCc1nc(-c2ccc(Br)cc2)c[nH]1)Nc1nc2ccccc2s1,,> 50 µg/mL,1880 nM,,64.8 µM
O=C(NCc1nc(-c2ccc(Br)cc2)c[nH]1)Nc1nc2cc(C(F)(F)F)ccc2s1,,3.12 µg/mL,> 10000 nM,,
O=C(NCc1nc(-c2ccc(Br)cc2)c[nH]1)Nc1ncc(Sc2ccc(Br)cc2)s1,,25 µg/mL,530 nM,,63.6 µM
O=C(NCc1nc(-c2ccc(Br)cc2)c[nH]1)Nc1ncc(Sc2ccccc2)s1,,1.56 µg/mL,900 nM,,
O=C(NCc1nc(-c2ccc(Br)cc2)c[nH]1)Nc1nc2cccc(C(F)(F)F)c2s1,,,2810 nM,,
COC(=O)c1ccc2nc(NC(=O)CSc3nc4ccccc4[nH]3)sc2c1,1800 nM,,4200 nM,,
O=C(NCc1nc(-c2ccc(Br)cc2)c[nH]1)Nc1nc2ccc(F)cc2s1,,,230 nM,,61.3 µM
O=C(NCc1nc(-c2ccc(Br)cc2)c[nH]1)Nc1nc2ccc(OC(F)(F)F)cc2s1,,12.5 µg/mL,90 nM,,
